Data published in ChEMBL document CHEMBL1127646, “Mechanism-based isocoumarin inhibitors for blood coagulation serine proteases. Effect of the 7-substituent in 7-amino-4-chloro-3-(isothioureidoalkoxy)isocoumarins on inhibitory and anticoagulant potency” (J Med Chem, 1994).
Peptide text beside a SMILES is read from it. * marks the point of attachment. Dansyl = CN(C)c1cccc2c(S(=O)(=O)*)cccc12; CH2Cl = ClC*

Key:
[1] = Hydrolysis half life (t1/2); type: ADME
Prothrombin (Bos taurus) = Prothrombin (Bos taurus) (UniProt P00735); assay: Inhibition of bovine thrombin (inhibitor concentration 1.2-54 uM)
[2] = Anticoagulant activity was determined in Ortho-activated thrombofax (APTT) assay at a dose 32 uM in pig plasma; type: functional, Sus scrofa
[3] = molecular target: Prothrombin (Homo sapiens) (UniProt P00734); assay: Inhibition of human thrombin (inhibitor concentration 1.2-54 uM)
[4] = molecular target: T1, Coagulation factor III (Sus scrofa) (UniProt Q6RCS8); assay: Anticoagulant activity in PT assay at a dose of 32 uM
T1 sequence (whole entry): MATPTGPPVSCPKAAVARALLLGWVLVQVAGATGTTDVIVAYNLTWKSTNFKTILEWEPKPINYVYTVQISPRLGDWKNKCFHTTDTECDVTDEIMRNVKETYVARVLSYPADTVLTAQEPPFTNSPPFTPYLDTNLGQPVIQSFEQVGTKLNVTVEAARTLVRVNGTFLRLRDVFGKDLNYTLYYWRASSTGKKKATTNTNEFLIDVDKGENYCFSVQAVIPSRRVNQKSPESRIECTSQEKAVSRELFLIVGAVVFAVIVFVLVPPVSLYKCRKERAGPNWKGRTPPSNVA

[5] = molecular target: Coagulation factor IX (Homo sapiens) (UniProt P00740); assay: Inhibition of porcine factor IXa at 8.3-82 uM; conditions: Sus scrofa, target entry is the homologue from another species
[6] = molecular target: Coagulation factor X (Homo sapiens) (UniProt P00742); assay: Inhibition of human factor Xa (inhibitor concentration were 3.6-44 uM)
[7] = molecular target: Coagulation factor XI (Homo sapiens) (UniProt P03951); assay: Compound was evaluated for inhibition of enzyme human coagulation factor XI (inhibitor concentration were 0.7-0.8 uM)
[8] = molecular target: T2, Coagulation factor XII (Homo sapiens) (UniProt P00748); assay: Inhibition of human coagulation factor XII (inhibitor concentration were 3.6-4.9 uM)
T2 sequence (whole entry): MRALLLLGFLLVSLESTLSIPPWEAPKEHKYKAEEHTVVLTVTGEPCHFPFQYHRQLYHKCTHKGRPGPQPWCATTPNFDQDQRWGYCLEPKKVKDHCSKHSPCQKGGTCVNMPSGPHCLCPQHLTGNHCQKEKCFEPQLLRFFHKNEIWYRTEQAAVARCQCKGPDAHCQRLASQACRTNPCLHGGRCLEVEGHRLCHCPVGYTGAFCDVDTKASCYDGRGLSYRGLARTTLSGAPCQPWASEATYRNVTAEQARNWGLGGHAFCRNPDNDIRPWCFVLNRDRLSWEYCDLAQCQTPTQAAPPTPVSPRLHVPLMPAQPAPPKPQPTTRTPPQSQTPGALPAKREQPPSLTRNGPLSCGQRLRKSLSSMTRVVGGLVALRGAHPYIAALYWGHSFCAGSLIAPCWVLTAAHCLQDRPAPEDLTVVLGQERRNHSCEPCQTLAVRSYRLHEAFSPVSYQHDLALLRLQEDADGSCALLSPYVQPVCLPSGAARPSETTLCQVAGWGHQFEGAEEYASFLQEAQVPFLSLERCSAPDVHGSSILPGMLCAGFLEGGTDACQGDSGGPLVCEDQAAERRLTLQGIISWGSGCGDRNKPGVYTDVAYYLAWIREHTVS

[9] = molecular target: T3, Coagulation factor VII (Homo sapiens) (UniProt P08709); assay: Inhibition of human coagulation factor VII at 7.2-44 uM
T3 sequence (whole entry): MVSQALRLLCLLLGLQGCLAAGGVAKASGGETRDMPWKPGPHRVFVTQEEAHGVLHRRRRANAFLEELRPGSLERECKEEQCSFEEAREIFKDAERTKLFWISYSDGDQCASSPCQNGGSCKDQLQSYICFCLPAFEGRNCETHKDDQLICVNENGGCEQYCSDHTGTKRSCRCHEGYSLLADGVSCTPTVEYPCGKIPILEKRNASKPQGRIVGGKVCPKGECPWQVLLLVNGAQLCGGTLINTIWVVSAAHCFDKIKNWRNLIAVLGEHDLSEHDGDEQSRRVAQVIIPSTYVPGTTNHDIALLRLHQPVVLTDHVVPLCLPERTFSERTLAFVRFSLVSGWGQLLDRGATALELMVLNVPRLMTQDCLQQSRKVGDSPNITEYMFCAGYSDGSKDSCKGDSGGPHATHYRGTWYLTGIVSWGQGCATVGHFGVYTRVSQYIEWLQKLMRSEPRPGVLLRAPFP

[10] = molecular target: Tissue factor (Homo sapiens) (UniProt P13726); assay: Anticoagulant activity in PT assay at a dose of 31 uM
[11] = Anticoagulant activity was determined in Ortho-activated thrombofax (APTT) assay at a dose 32 uM in human dead plasma; type: functional
[12] = Anticoagulant activity was determined in Ortho-activated thrombofax (APTT) assay at a dose 9.4 uM in human dead plasma; type: functional
[13] = Anticoagulant activity was determined in Ortho-activated thrombofax (APTT) assay at a dose 31 uM in human dead plasma; type: functional
[14] = molecular target: T1, Coagulation factor III (Sus scrofa); assay: Anticoagulant activity in PT assay at a dose 16 uM
[15] = molecular target: T1, Coagulation factor III (Sus scrofa); assay: Anticoagulant activity in PT assay at a dose 32 uM
[16] = Anticoagulant activity was determined in Ortho-activated thrombofax (APTT) assay at a dose 16 uM in pig plasma; type: functional, Sus scrofa

Tissue factor (Homo sapiens), sequence (P13726 whole entry): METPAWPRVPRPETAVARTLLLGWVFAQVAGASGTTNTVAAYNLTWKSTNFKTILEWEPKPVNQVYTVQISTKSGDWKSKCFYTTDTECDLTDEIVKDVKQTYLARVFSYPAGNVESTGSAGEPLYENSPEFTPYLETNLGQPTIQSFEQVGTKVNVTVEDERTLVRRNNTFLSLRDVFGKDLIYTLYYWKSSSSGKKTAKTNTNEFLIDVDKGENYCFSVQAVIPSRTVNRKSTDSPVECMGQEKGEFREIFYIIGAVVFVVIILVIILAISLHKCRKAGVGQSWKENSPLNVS
Coagulation factor XI (Homo sapiens), sequence (P03951 19-387 limits assumed): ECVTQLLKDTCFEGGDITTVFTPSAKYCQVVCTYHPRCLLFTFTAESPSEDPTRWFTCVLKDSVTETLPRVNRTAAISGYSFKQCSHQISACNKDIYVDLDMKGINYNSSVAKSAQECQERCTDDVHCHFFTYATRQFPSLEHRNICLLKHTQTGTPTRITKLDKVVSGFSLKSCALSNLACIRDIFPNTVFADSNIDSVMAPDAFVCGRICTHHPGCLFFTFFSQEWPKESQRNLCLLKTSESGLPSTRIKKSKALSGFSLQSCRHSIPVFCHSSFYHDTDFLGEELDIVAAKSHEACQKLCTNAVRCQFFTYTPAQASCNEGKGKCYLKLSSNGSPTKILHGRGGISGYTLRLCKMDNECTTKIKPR
Coagulation factor XI (Homo sapiens), sequence (P03951 388-625 limits assumed): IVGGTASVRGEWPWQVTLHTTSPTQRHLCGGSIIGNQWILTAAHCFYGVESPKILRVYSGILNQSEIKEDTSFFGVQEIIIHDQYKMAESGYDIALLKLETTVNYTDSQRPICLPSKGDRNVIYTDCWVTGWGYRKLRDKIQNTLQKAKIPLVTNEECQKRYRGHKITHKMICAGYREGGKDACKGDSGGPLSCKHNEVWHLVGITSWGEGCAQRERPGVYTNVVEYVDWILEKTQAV
Coagulation factor X (Homo sapiens), sequence (P00742 41-179 limits assumed): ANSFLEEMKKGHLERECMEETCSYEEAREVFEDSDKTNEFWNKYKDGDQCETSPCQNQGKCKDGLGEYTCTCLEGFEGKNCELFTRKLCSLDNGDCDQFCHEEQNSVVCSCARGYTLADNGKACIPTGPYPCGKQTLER
Coagulation factor X (Homo sapiens), sequence (P00742 235-488 limits assumed): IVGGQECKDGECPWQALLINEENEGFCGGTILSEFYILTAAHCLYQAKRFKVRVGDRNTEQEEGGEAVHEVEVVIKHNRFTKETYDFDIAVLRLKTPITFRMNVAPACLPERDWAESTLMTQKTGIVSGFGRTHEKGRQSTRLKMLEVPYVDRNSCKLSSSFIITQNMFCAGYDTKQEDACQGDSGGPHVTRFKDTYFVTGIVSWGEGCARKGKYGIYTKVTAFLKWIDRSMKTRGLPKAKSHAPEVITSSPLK

| SMILES | half-life [1] [min] | K obs / 1 (Prothrombin (Bos taurus)) [M⁻¹ s⁻¹] | K obs / 1 [3] [M⁻¹ s⁻¹] | K obs / 1 [5] [M⁻¹ s⁻¹] | K obs / 1 [6] [M⁻¹ s⁻¹] | K obs / 1 [8] [M⁻¹ s⁻¹] | K obs / 1 [9] [M⁻¹ s⁻¹] | further results |
| --- | --- | --- | --- | --- | --- | --- | --- | --- |
| C[C@@H](NC(=O)Nc1ccc2c(Cl)c(OCCSC(=N)N)oc(=O)c2c1)c1ccccc1 | 62 | 29500 | 12000 |  |  |  |  | APTT [2]: >120 s; PT [4]: 26.2 s |
| N=C(N)SCCCOc1oc(=O)c2cc(NC(=O)Cc3ccccc3)ccc2c1Cl | 61 | 600 | 610 | 610 | 610 | 610 | 610 | K obs / 1 [7]: 610 M⁻¹ s⁻¹ |
| N=C(N)SCCCOc1oc(=O)c2cc(N)ccc2c1Cl | 90 | 630 | 760 | 80 | 60 | 6200 | 430 | K obs / 1 [7]: 22000 M⁻¹ s⁻¹ |
| N=C(N)SCCOc1oc(=O)c2cc(NC(=O)CCc3ccccc3)ccc2c1Cl | 39 |  | 2150 |  |  |  |  | PT [10]: 24.4 s; APTT [11]: 140 s; APTT [12]: 52.4 s; APTT [13]: 76.2 s |
| CC(C)(C)OC(=O)N[C@H](Cc1ccccc1)C(=O)Nc1ccc2c(Cl)c(OCCCSC(=N)N)oc(=O)c2c1 | 55 | 330 | 520 |  |  |  |  |  |
| N=C(N)SCCOc1oc(=O)c2cc(NC(=O)Nc3ccccc3)ccc2c1Cl | 108 | 25000 | 22400 | 1790 | 4740 | 50000 | 3140 | K obs / 1 [7]: 104000 M⁻¹ s⁻¹; APTT [12]: 47.7 s; APTT [13]: 87.3 s; PT [14]: 28.5 s; PT [15]: 58.3 s; APTT [16]: >120 s |
| CC(C)(C)OC(=O)N[C@H](Cc1ccccc1)C(=O)Nc1ccc2c(Cl)c(OCCSC(=N)N)oc(=O)c2c1 | 42 | 1090 | 1140 |  | 1620 |  |  |  |
| N=C(N)SCCCOc1oc(=O)c2cc(NC(=O)[C@H](N)Cc3ccccc3)ccc2c1Cl | 46 | 400 | 470 |  |  |  |  |  |
| C[C@H](NC(=O)Nc1ccc2c(Cl)c(OCCSC(=N)N)oc(=O)c2c1)c1ccccc1 | 56 | 41300 | 21000 | 3980 |  |  | 1830 | APTT [2]: >120 s; APTT [12]: 57.6 s; APTT [13]: 111.2 s; PT [15]: 30 s |
| N=C(N)SCCCOc1oc(=O)c2cc(NC(=O)CCc3ccccc3)ccc2c1Cl | 66 | 820 | 630 |  |  |  |  |  |
| N=C(N)SCCOc1oc(=O)c2cc(NC(=O)Cc3ccccc3)ccc2c1Cl |  | 15800 | 6730 | 2620 | 3630 | 59000 | 1100 |  |
| N=C(N)SCCOc1oc(=O)c2cc(NC(=O)Nc3cccc4ccccc34)ccc2c1Cl |  | 17500 | 5800 |  |  |  |  |  |
| CC(=O)CCC(=O)Nc1ccc2c(Cl)c(OCCSC(=N)N)oc(=O)c2c1 | 28 |  | 1770 |  |  |  |  | PT [10]: 42.5 s; APTT [13]: >140 s |
| N=C(N)SCCOc1oc(=O)c2cc(NC(=O)NCc3ccccc3)ccc2c1Cl |  | 16800 | 11700 | 2320 | 2340 | 45000 | 1810 | K obs / 1 [7]: 105000 M⁻¹ s⁻¹; APTT [2]: >120 s; APTT [12]: 60.1 s; APTT [13]: 115.4 s; PT [15]: 31.1 s |
| CCOc1oc(=O)c2cc(NC(=N)N)ccc2c1Cl |  | 55000 |  | 2850 | 11000 | 22000 | 2200 | K obs / 1 [7]: 60000 M⁻¹ s⁻¹ |
| N=C(N)SCCOc1oc(=O)c2cc(NC(=O)NC(c3ccccc3)c3ccccc3)ccc2c1Cl | 168 |  | 7050 |  |  |  |  | PT [10]: 18.4 s; APTT [13]: 121 s |
| N=C(N)SCCOc1oc(=O)c2cc(NC(=O)[C@H](N)Cc3ccccc3)ccc2c1Cl | 21 | 1280 | 1340 | 1590 | 3770 | 107000 | 4010 |  |
| C[C@H](N)C(=O)N[C@@H](C)C(=O)Nc1ccc2c(Cl)c(OCCSC(=N)N)oc(=O)c2c1 |  | 1070 | 880 |  | 1490 |  |  |  |
| O=c1oc(Cl)c(Cl)c2ccccc12 |  | 25 | 10 | 10 |  | 64 | 31 |  |
| CC(C)(C)OC(=O)N[C@@H](Cc1ccccc1)C(=O)Nc1ccc2c(Cl)c(OCCCSC(=N)N)oc(=O)c2c1 | 51 | 190 | 230 |  |  |  |  |  |
| N=C(N)SCCOc1oc(=O)c2cc(NC(=O)[C@@H](N)Cc3ccccc3)ccc2c1Cl | 18 | 4240 | 3070 |  | 3070 | 82000 |  |  |
| N=C(N)SCCCOc1oc(=O)c2cc(NC(=O)NCc3ccccc3)ccc2c1Cl | 148 | 420 | 700 |  |  |  |  |  |
| CN(C)c1cccc2c(S(=O)(=O)N[C@@H](CCC(=O)O)C(=O)NCC(=O)N[C@@H](CCCN=C(N)N)C(=O)CCl)cccc12 (Dansyl-Glu-Gly-Arg-CH2Cl) |  |  |  | 180 |  |  | 20 |  |
| CC(C)NC(=O)Nc1ccc2c(Cl)c(OCCSC(=N)N)oc(=O)c2c1 |  | 4100 | 5000 |  |  |  |  |  |
| CC(C)(C)OC(=O)N[C@@H](Cc1ccccc1)C(=O)Nc1ccc2c(Cl)c(OCCSC(=N)N)oc(=O)c2c1 | 39 | 1040 | 1090 |  |  |  |  |  |
| N=C(N)SCCCOc1oc(=O)c2cc(NC(=O)Nc3ccccc3)ccc2c1Cl | 148 | 970 | 1840 | 110 | 50 | 7720 | 720 |  |
| N=C(N)SCCCOc1oc(=O)c2cc(NC(=O)[C@@H](N)Cc3ccccc3)ccc2c1Cl | 42 | 180 | 220 |  |  |  |  |  |
| CC(=O)Nc1ccc2c(Cl)c(OCCCSC(=N)N)oc(=O)c2c1 | 68 | 420 | 310 |  |  |  |  |  |
| N=C(N)SCCCOc1oc(=O)c2ccccc2c1Cl |  | 1400 |  | 90 |  | 27000 | 450 | K obs / 1 [7]: 47000 M⁻¹ s⁻¹ |
| C[C@H](NC(=O)OC(C)(C)C)C(=O)N[C@@H](C)C(=O)Nc1ccc2c(Cl)c(OCCSC(=N)N)oc(=O)c2c1 | 40 | 1530 | 970 |  |  |  |  |  |
